Laboratory results reported in patent publication US20220296627A1, “Cytidine Derivatives and Methods of Forming Cytidine Derivatives” (Aenorasis Commercial Company of Pharmaceutical and Medical …, priority 2019, published 2022).
pIC50: −log10 of the molar value.

Experiments:
[1] = Photolysis under UV irradiation (absorption spectrum); assay type: physicochemical; conditions: 10 μM in MeOH, UV lamp at 366 nm for 240 minutes, room temperature
Description: After ultraviolet irradiation at a specific photo-digested group wavelength in the range from 350 to 500 nm (or greater than 700 nm when utilising two photon excitation), the active form of the encapsulated molecule is released irreversibly. Photo-inclusion has often been performed in vitro for the spatio-temporal control of biological processes and the release of light-induced payload. […] The present inventors believe that this dual strategy is of great value for therapeutic applications while it requires non-invasive and space-time drug activation. In order to show this dual drug release mechanism, the present inventors performed photolysis experiments (FIG. 2).
The spectra of derivative 7 (10 μM) and Gemcitabine (5 μM) were recorded on a Perkin Elmer Lambda 25 spectrometer at room temperature. The samples were solubilized in MeOH grade HPLC grade and irradiated with UV lamp at 366 nm for 240 minutes. The present inventors noticed that in the range of 280-290 nm and 320-330 nm there is a decrease in the absorption intensity and at the same time there is an increase in intensity to 250-270 nm. […] This theory is supported by the increase in the band corresponding to Gemcitabine.

[2] = system: BXPC-3 epithelial human pancreatic adenocarcinoma cells; test: Cell growth assay (SRB) in BXPC-3; assay type: cell-based; conditions: for Ratio of IC50 in the presence of dipyridamole / IC50 in the absence of dipyridamole / Ratio of IC50 in the presence of, compared to in the absence of, dipyridamole: BXPC-3; for Ratio of IC50 in the presence of dipyridamole / IC50 in the absence of dipyridamole: 4-N-acyl and 4-N-phosphoryl derivatives (Table 5); for pIC50: Homo sapiens, BXPC-3, BXPC-3; for Ratio of IC50 in the presence of, compared to in the absence of, dipyridamole: acetylated 4-N-acyl derivatives (Table 7)
Experimental: (§1) Biological activities of the Gemcitabine derivative (which may be referred to as analogues) described above were evaluated with two assays: • 1. Cell growth assay using the SRB assay in cell lines A549/WT, SW1573/WT, PANC-01 and BXPC-3. • 2. MTT assay in human bladder cancer cell line T-24
(§2) The following cell lines were tested: • A549/WT —wild type human lung adenocarcinoma cell line (1) • SW1573/WT —wild type non-small lung human cell line (2), • PANC-01—human pancreatic cancer cell line (3) • BXPC-3 -epithelial human pancreatic adenocarcinoma cells (4).
(§3) Dipyridamole inhibits adenosine uptake by erythrocytes platelets and endothelial cells in vitro and in vivo. Thus, the present inventors recruited dipyridamole as an inhibitor of the nucleoside transporters of the tumour cells to observe the behaviour of the presently described Gemcitabine derivatives.
(§4) From the IC50 of each compound in the presence of dipyridamole, by dividing it with the IC50 of each compound in the absence of dipyridamole, the present inventors calculated a ratio that compared the efficacy of the analogous presence of dipyridamole.
(§5) Ratio=IC50 in the presence of dipyridamole/IC50 in the absence of dipyridamole • FIG. 10. Ratio of IC50 of 4-N-acyl and 4-N-phosphoryl derivatives in the presence of, compared to in the absence of, dipyridamole, in four cell lines

[3] = system: A549/WT wild type human lung adenocarcinoma cell line; test: Cell growth assay (SRB) in A549/WT; assay type: cell-based; conditions: for Ratio of IC50 in the presence of dipyridamole / IC50 in the absence of dipyridamole / Ratio of IC50 in the presence of, compared to in the absence of, dipyridamole: A549/WT; for Ratio of IC50 in the presence of dipyridamole / IC50 in the absence of dipyridamole: 4-N-acyl and 4-N-phosphoryl derivatives (Table 5); for pIC50: Homo sapiens, A549, A549/WT; for Ratio of IC50 in the presence of, compared to in the absence of, dipyridamole: acetylated 4-N-acyl derivatives (Table 7)
Experimental: as §1, §2, §3, §4, §5

[4] = system: PANC-01 human pancreatic cancer cell line; test: Cell growth assay (SRB) in PANC-01; assay type: cell-based; conditions: for Ratio of IC50 in the presence of dipyridamole / IC50 in the absence of dipyridamole: 4-N-acyl and 4-N-phosphoryl derivatives (Table 5); for pIC50: Homo sapiens, Pancreatic cancer cell; for Ratio of IC50 in the presence of, compared to in the absence of, dipyridamole: acetylated 4-N-acyl derivatives (Table 7)
Experimental: as §1, §2, §3, §4, §5

[5] = system: SW1573/WT wild type non-small lung human cell line; test: Cell growth assay (SRB) in SW1573/WT; assay type: cell-based; conditions: for pIC50: Homo sapiens, SW1573, SW 1573/WT; for Ratio of IC50 in the presence of dipyridamole / IC50 in the absence of dipyridamole / Ratio of IC50 in the presence of, compared to in the absence of, dipyridamole: SW 1573/WT; for Ratio of IC50 in the presence of dipyridamole / IC50 in the absence of dipyridamole: 4-N-acyl and 4-N-phosphoryl derivatives (Table 5); for Ratio of IC50 in the presence of, compared to in the absence of, dipyridamole: acetylated 4-N-acyl derivatives (Table 7)
Experimental: as §1, §2, §3, §4, §5

[6] = system: human bladder cancer cell line T-24; test: MTT assay, cell viability of T-24 cells; assay type: cell-based; conditions: 100 μM; for inhibition of cell growth (cell viability, MTT), order of potency: 5000 cells/well; for cell viability (MTT), most potent derivatives: 10000 cells/well
Experimental: as §1
The cell viability of T-24 bladder cancer cells upon treatment with the Gemcitabine derivatives was evaluated using the MTT assay. T24 cancer cells were cultured in DMEM (Gibco) high glucose supplemented with 10% FBS and 1% Penicillin/Streptomycin (100 U/mL Penicillin and 100 μg/mL Streptomycin), at 37 ° C. in humidified atmosphere of 5% CO2.
For the MTT assay 5000 or 10000 cells were seeded in triplicates in 96-well plates. Stock solutions of each derivative were prepared in DMSO/EtOH (1:1 v/v). Then, the cells were treated and incubated with 100 μM of each compound for 24 or 48 hours. After the completion of the incubation time, 10 μL of MTT solution (5 mg/ml in PBS buffer) were added in each well and incubated for 4 hrs. Finally, to stop the reaction, the supernatant from each well was removed and 100 μL of stop mix solution (20% SDS in 50% dimethyl formamide in water) were added. The plate remained in darkness for 2 h and the absorbance was measured at 540 nm via a microplate ELISA reader (Awareness Technology Inc.) with a reference at 630 nm. The % cell viability for each compound was calculated relatively to the absorbance of the untreated cells (control).
Two sets of experiments were performed at concentrations of 100 μM, and the absorption of formazan was measured after 24 and 48 hours.
Another experiment was conducted with the MTT assay where the compounds were incubated for 48 hours at […] derivative concentration where the number of cells seeded per well was 10000.

Human plasma stability = assay type: in vitro ADME; conditions: 37° C., 24 hours incubation, 0.1 μM, triplicates
Experimental: Human plasma stability of 4-N-ethyl carbamate
1. The final concentration of 4-N-ethyl carbamate Gemcitabine in human plasma was 0.1 μM.
2. Each sample was studied in triplicates.
3. The time points during incubation in which the present inventors evaluated the concentration of derivative were: 0, 1, 2, 4, 18 and 24 hours (FIG. 16). The derivative was stable after 24 hours incubation (96% still remaining).
4. A calibration curve was designed in order to quantify the concentration of derivative in human plasma (FIG. 17). Five calibrators were used at concentrations range of 0.01, 0.05, 0.1, 0.2 and 0.4 μM. Coefficient of determination (r^2) was calculated 0.999418.
5. Accuracy in terms of trueness and precision was evaluated through the analysis of three replicates at three concentration levels (low: 0.025 μM, mid: 0.08 μM and high: 0.3 μM). The trueness was expressed as the percentage difference between the calculated concentrations and the theoretical prepared concentrations while precision was expressed as CV%.
6. LOQ was determined at 0.01 μM with trueness and precision 8.49% and 9.66% respectively and within the acceptable limits for LOQ (<20%).
FIG. 17. In vitro stability of Ethyl-(4-N-Gemcitabine) carbamate (derivative 1) after 24 h incubation in human plasma at 37° C.

[7] = 4-N-acyl and 4-N-phosphoryl derivatives (Table 4)
[8] = acetylated 4-N-acyl derivatives (Table 6)

SMILES	Ratio of IC50 in the presence of dipyridamole / IC50 in the absence of dipyridamole [2]	pIC50 [2, 7]	Ratio of IC50 in the presence of dipyridamole / IC50 in the absence of dipyridamole [3]	pIC50 [3, 7]	Ratio of IC50 in the presence of dipyridamole / IC50 in the absence of dipyridamole [4]	pIC50 [4, 7]	pIC50 [5, 7]	Ratio of IC50 in the presence of dipyridamole / IC50 in the absence of dipyridamole [5]	Ratio of IC50 in the presence of, compared to in the absence of, dipyridamole [2]	pIC50 [2, 8]	Ratio of IC50 in the presence of, compared to in the absence of, dipyridamole [3]	pIC50 [3, 8]	pIC50 [4, 8]	Ratio of IC50 in the presence of, compared to in the absence of, dipyridamole [4]	pIC50 [5, 8]	Ratio of IC50 in the presence of, compared to in the absence of, dipyridamole [5]	inhibition of cell growth (cell viability, MTT), order of potency ([6]; 24 hours)	inhibition of cell growth (cell viability, MTT), order of potency ([6]; 48 hours)	cell viability (MTT), most potent derivatives ([6]; 48 hours)	further results
O=C(Nc1ccn(C2OC(CO)C(O)C2(F)F)c(=O)n1)OCCl (stereo not shown) [Derivative 4]	4.5	7.00	6.3	7.00	22	7.35	7.00	10	–	–	–	–	–	–	–	–	greater potency than the parent drug Gemcitabine	17>4>11 and then Gemcitabine	most potent	–
CCOC(=O)Nc1ccn(C2OC(CO)C(O)C2(F)F)c(=O)n1 (stereo not shown) [Derivative 1, Ethyl-(4-N-Gemcitabine) carbamate]	23.2	6.07	16.2	5.80	4.1	5.41	5.94	21	–	–	–	–	–	–	–	–	–	–	–	still remaining after incubation in human plasma (Human plasma stability): 96%

More lines, main results first:

Ratio of IC50 in the presence of dipyridamole / IC50 in the absence of dipyridamole [2]	pIC50 [2, 7]	Ratio of IC50 in the presence of dipyridamole / IC50 in the absence of dipyridamole [3]	pIC50 [3, 7]	Ratio of IC50 in the presence of dipyridamole / IC50 in the absence of dipyridamole [4]	pIC50 [4, 7]	pIC50 [5, 7]	Ratio of IC50 in the presence of dipyridamole / IC50 in the absence of dipyridamole [5]	Ratio of IC50 in the presence of, compared to in the absence of, dipyridamole [2]	pIC50 [2, 8]	Ratio of IC50 in the presence of, compared to in the absence of, dipyridamole [3]	pIC50 [3, 8]	pIC50 [4, 8]	Ratio of IC50 in the presence of, compared to in the absence of, dipyridamole [4]	pIC50 [5, 8]	Ratio of IC50 in the presence of, compared to in the absence of, dipyridamole [5]	SMILES	inhibition of cell growth (cell viability, MTT), order of potency ([6]; 24 hours)	inhibition of cell growth (cell viability, MTT), order of potency ([6]; 48 hours)	cell viability (MTT), most potent derivatives ([6]; 48 hours)	further results
13.9	6.64	14.2	6.34	3.3	5.82	6.36	11	–	–	–	–	–	–	–	–	COc1cc(COC(=O)Nc2ccn(C3OC(CO)C(O)C3(F)F)c(=O)n2)c([N+](=O)[O-])cc1OC (stereo not shown) [Derivative 7, (4,5-dimethoxy)-2-nitrobenzyl-(4-N-Gemcitabine) carbamate]	–	–	–	photolysis on irradiation (absorption spectrum over time) [1]: release of Gemcitabine
26.6	8.05	15	7.74	3.4	7.28	7.96	22.7	24.3	7.89	18	7.82	7.51	7.4	8.02	1	Nc1ccn([C@@H]2O[C@H](CO)[C@@H](O)C2(F)F)c(=O)n1 [Gemcitabine, 2′,2′-difluoro-2′-deoxycytidine, reference compound]	–	17>4>11 and then Gemcitabine	–	–
–	–	–	–	–	–	–	–	1.77	5.87	0.83	5.51	5.19	0.9	5.55	1.4	CCCCOC(=O)Nc1ccn(C2OC(COC(C)=O)C(OC(C)=O)C2(F)F)c(=O)n1 (stereo not shown) [Derivative 14]	–	–	most potent	–
–	–	–	–	–	–	–	–	3.5	7.02	2.4	5.70	6.15	1.8	6.85	–	CC(=O)OCC1OC(n2ccc(NC(=O)OCCl)nc2=O)C(F)(F)C1OC(C)=O (stereo not shown) [Derivative 17]	greater potency than the parent drug Gemcitabine	17>4>11 and then Gemcitabine	–	–
